The source made the active and inactive calls. The rule behind the calls is not given here.
Columns and labels:
[1] = Toxicity in po dosed Spanish V-line rabbit assessed as mortality after 24 hrs; assay type: organism-based, Oryctolagus cuniculus; details: in vivo
Oryctolagus cuniculus [2] = assay: In vivo inhibition of Spanish V-line rabbit liver alpha-glucosidase assessed as specific enzyme activity per mg protein using maltose as substrate at 10% LD50, po after 8 hrs; assay type: functional
Oryctolagus cuniculus [3] = assay: In vivo inhibition of Spanish V-line rabbit liver alpha-glucosidase assessed as specific enzyme activity per mg protein using maltose as substrate at 10% LD50, po after 16 hrs; assay type: functional
Oryctolagus cuniculus [4] = assay: In vivo inhibition of Spanish V-line rabbit liver alpha-glucosidase assessed as specific enzyme activity per mg protein using maltose as substrate at 10% LD50, po after 24 hrs; assay type: functional
Oryctolagus cuniculus [5] = assay: In vivo inhibition of Spanish V-line rabbit liver alpha-glucosidase assessed as specific enzyme activity per mg protein using maltose as substrate at 10% LD50, po after 48 hrs; assay type: functional
Oryctolagus cuniculus [6] = assay: In vivo inhibition of Spanish V-line rabbit liver alpha-glucosidase assessed as specific enzyme activity per mg protein using maltose as substrate at 10% LD50, po after 72 hrs; assay type: functional
Oryctolagus cuniculus [7] = assay: In vivo inhibition of Spanish V-line rabbit liver alpha-glucosidase assessed as specific enzyme activity per mg protein using maltose as substrate at 10% LD50, po after 96 hrs; assay type: functional
Oryctolagus cuniculus [8] = assay: In vivo inhibition of Spanish V-line rabbit liver alpha-amylase assessed as specific enzyme activity per mg protein using starch as substrate at 10% LD50, po after 8 hrs; assay type: functional
Oryctolagus cuniculus [9] = assay: In vivo inhibition of Spanish V-line rabbit liver alpha-amylase assessed as specific enzyme activity per mg protein using starch as substrate at 10% LD50, po after 16 hrs; assay type: functional
Oryctolagus cuniculus [10] = assay: In vivo inhibition of Spanish V-line rabbit liver alpha-amylase assessed as specific enzyme activity per mg protein using starch as substrate at 10% LD50, po after 24 hrs; assay type: functional
Oryctolagus cuniculus [11] = assay: In vivo inhibition of Spanish V-line rabbit liver alpha-amylase assessed as specific enzyme activity per mg protein using starch as substrate at 10% LD50, po after 48 hrs; assay type: functional
Oryctolagus cuniculus [12] = assay: In vivo inhibition of Spanish V-line rabbit liver alpha-amylase assessed as specific enzyme activity per mg protein using starch as substrate at 10% LD50, po after 72 hrs; assay type: functional
Oryctolagus cuniculus [13] = assay: In vivo inhibition of Spanish V-line rabbit liver alpha-amylase assessed as specific enzyme activity per mg protein using starch as substrate at 10% LD50, po after 96 hrs; assay type: functional
Oryctolagus cuniculus [14] = assay: In vivo inhibition of Spanish V-line rabbit liver alpha-amylase assessed as specific enzyme activity per mg protein using starch as substrate at 10% LD50, po after 120 hrs; assay type: functional
Oryctolagus cuniculus [15] = assay: In vivo inhibition of Spanish V-line rabbit alpha-glucosidase using maltose as substrate at 25% LD50, po after 24 hrs relative to control; assay type: functional
Oryctolagus cuniculus [16] = assay: In vivo inhibition of Spanish V-line rabbit liver alpha-glucosidase assessed as specific enzyme activity per mg protein using maltose as substrate at 10% LD50, po after 120 hrs; assay type: functional
Oryctolagus cuniculus [17] = assay: In vivo inhibition of alpha-glucosidase in po dosed Spanish V-line rabbit using maltose as substrate after 24 hrs; assay type: functional, organism-based
Oryctolagus cuniculus [18] = assay: In vivo inhibition of alpha-amylase in po dosed Spanish V-line rabbit using starch as substrate at after 24 hrs; assay type: functional, organism-based
Oryctolagus cuniculus [19] = assay: In vivo inhibition of Spanish V-line rabbit alpha-amylase using starch as substrate at 25% LD50, po after 24 hrs relative to control; assay type: functional
[20] = Inhibition of Spanish V-line rabbit liver alpha-glucosidase using maltose as substrate after 5 mins by spectrophotometry; design: species or system Oryctolagus cuniculus
[21] = Inhibition of Spanish V-line rabbit liver alpha-amylase using starch as substrate after 5 mins by spectrophotometry; design: species or system Oryctolagus cuniculus
Oryctolagus cuniculus [22] = organism: Oryctolagus cuniculus; assay: Reversible Inhibition of Spanish V-line rabbit liver alpha-glucosidase using maltose as substrate compound preincubated for 60 mins by dialysis method
Oryctolagus cuniculus [23] = organism: Oryctolagus cuniculus; assay: Reversible Inhibition of Spanish V-line rabbit liver alpha-amylase using starch as substrate compound preincubated for 60 mins by dialysis method
Oryctolagus cuniculus [24] = organism: Oryctolagus cuniculus; assay: Inhibition of Spanish V-line rabbit liver alpha-glucosidase using maltose as substrate assessed per mg protein at 16 uM by Lineweaver-Burk plot ( RVb = 53 +/- 5 10^-3 uM/min/mg protein )
Oryctolagus cuniculus [25] = organism: Oryctolagus cuniculus; assay: Inhibition of Spanish V-line rabbit liver alpha-glucosidase using maltose as substrate assessed per mg protein at 32 uM by Lineweaver-Burk plot ( RVb = 53 +/- 5 10^-3 uM/min/mg protein )
Oryctolagus cuniculus [26] = organism: Oryctolagus cuniculus; assay: Inhibition of Spanish V-line rabbit liver alpha-glucosidase using maltose as substrate assessed per mg protein at 64 uM by Lineweaver-Burk plot ( RVb = 53 +/- 5 10^-3 uM/min/mg protein )
Oryctolagus cuniculus [27] = organism: Oryctolagus cuniculus; assay: Inhibition of Spanish V-line rabbit liver alpha-amylase using starch as substrate assessed per mg protein at 16 uM by Lineweaver-Burk plot ( RVb = 9.0 +/- 0.8 10^-3 uM/min/mg protein )
Oryctolagus cuniculus [28] = organism: Oryctolagus cuniculus; assay: Inhibition of Spanish V-line rabbit liver alpha-amylase using starch as substrate assessed per mg protein at 32 uM by Lineweaver-Burk plot ( RVb = 9.0 +/- 0.8 10^-3 uM/min/mg protein )
Oryctolagus cuniculus [29] = organism: Oryctolagus cuniculus; assay: Inhibition of Spanish V-line rabbit liver alpha-amylase using starch as substrate assessed per mg protein at 64 uM by Lineweaver-Burk plot ( RVb = 9.0 +/- 0.8 10^-3 uM/min/mg protein )
Oryctolagus cuniculus [30] = organism: Oryctolagus cuniculus; assay: Inhibition of Spanish V-line rabbit liver alpha-glucosidase using maltose as substrate assessed per mg protein at 48 uM by Lineweaver-Burk plot ( RVb = 53 +/- 5 10^-3 uM/min/mg protein )
Oryctolagus cuniculus [31] = organism: Oryctolagus cuniculus; assay: Inhibition of Spanish V-line rabbit liver alpha-amylase using starch as substrate assessed per mg protein at 48 uM by Lineweaver-Burk plot ( RVb = 9.0 +/- 0.8 10^-3 uM/min/mg protein )
[32] = Competitive inhibition of Spanish V-line rabbit liver alpha-glucosidase using maltose as substrate by Dixon plot analysis; design: species or system Oryctolagus cuniculus
[33] = Competitive inhibition of Spanish V-line rabbit liver alpha-glucosidase using maltose as substrate by Lineweaver-Burk plot analysis; design: species or system Oryctolagus cuniculus
[34] = Non-competitive inhibition of Spanish V-line rabbit liver alpha-amylase using starch as substrate by Lineweaver-Burk plot analysis; design: species or system Oryctolagus cuniculus
[35] = Non-competitive inhibition of Spanish V-line rabbit liver alpha-amylase using starch as substrate by Dixon plot analysis; design: species or system Oryctolagus cuniculus
Oryctolagus cuniculus [36] = organism: Oryctolagus cuniculus; assay: Competitive inhibition of Spanish V-line rabbit liver alpha-glucosidase using maltose as substrate
Oryctolagus cuniculus [37] = organism: Oryctolagus cuniculus; assay: Non-competitive inhibition of Spanish V-line rabbit liver alpha-amylase using starch as substrate

**Q.** For `Sc1nnc(-c2ccccc2)n1-c1ccccc1`, which LD50 at 24 h [1] is on record?
**A.** 107 mg/kg

**Q.** What about the Activity (Oryctolagus cuniculus [2]) of the same compound?
**A.** 18.6 µM/min

**Q.** What about the Activity (Oryctolagus cuniculus [3]) of the same compound?
**A.** 16.7 µM/min

**Q.** And the Activity (Oryctolagus cuniculus [4])?
**A.** 15.4 µM/min

**Q.** What about the Activity (Oryctolagus cuniculus [5]) of the same compound?
**A.** 16.1 µM/min

**Q.** What about the Activity (Oryctolagus cuniculus [6]) of the same compound?
**A.** 18.5 µM/min

**Q.** And the Activity (Oryctolagus cuniculus [7])?
**A.** 19.8 µM/min

**Q.** And the Activity (Oryctolagus cuniculus [8])?
**A.** 4.5 µM/min

**Q.** What about the Activity (Oryctolagus cuniculus [9]) of the same compound?
**A.** 4.1 µM/min

**Q.** And the Activity (Oryctolagus cuniculus [10])?
**A.** 3.7 µM/min

**Q.** What about the Activity (Oryctolagus cuniculus [11]) of the same compound?
**A.** 4 µM/min

**Q.** And the Activity (Oryctolagus cuniculus [12])?
**A.** 4.3 µM/min

**Q.** What about the Activity (Oryctolagus cuniculus [13]) of the same compound?
**A.** 4.6 µM/min

**Q.** What about the Activity (Oryctolagus cuniculus [14]) of the same compound?
**A.** 4.7 µM/min

**Q.** And the “inhibition (INH)” value (Oryctolagus cuniculus [15])?
**A.** 50%

**Q.** And the Activity (Oryctolagus cuniculus [16])?
**A.** 19.9 µM/min

**Q.** And the inhibition (Oryctolagus cuniculus [17])?
**A.** Dose-dependent effect

**Q.** What about the inhibition (Oryctolagus cuniculus [18]) of the same compound?
**A.** Dose-dependent effect

**Q.** And the “inhibition (INH)” value (Oryctolagus cuniculus [19])?
**A.** 46%

**Q.** What about the IC50 [20] of the same compound?
**A.** 67 µM

**Q.** What about the IC50 [21] of the same compound?
**A.** 73 µM

**Q.** What about the inhibition (Oryctolagus cuniculus [22]) of the same compound?
**A.** Active

**Q.** What about the inhibition (Oryctolagus cuniculus [23]) of the same compound?
**A.** Active

**Q.** What about the Vmax (Oryctolagus cuniculus [24]) of the same compound?
**A.** 20 nM/min

**Q.** And the Vmax (Oryctolagus cuniculus [25])?
**A.** 18 nM/min

**Q.** And the Vmax (Oryctolagus cuniculus [26])?
**A.** 12.5 nM/min

**Q.** What about the Vmax (Oryctolagus cuniculus [27]) of the same compound?
**A.** 8 nM/min

**Q.** What about the Vmax (Oryctolagus cuniculus [28]) of the same compound?
**A.** 6.3 nM/min

**Q.** What about the Vmax (Oryctolagus cuniculus [29]) of the same compound?
**A.** 5.3 nM/min

**Q.** And the Vmax (Oryctolagus cuniculus [30])?
**A.** 16.6 nM/min

**Q.** And the Vmax (Oryctolagus cuniculus [31])?
**A.** 5.4 nM/min

**Q.** What about the Ki [32] of the same compound?
**A.** 38 µM

**Q.** What about the Ki [33] of the same compound?
**A.** 42 µM

**Q.** And the Ki [34]?
**A.** 72 µM

**Q.** What about the Ki [35] of the same compound?
**A.** 65 µM

**Q.** And the inhibition (Oryctolagus cuniculus [36])?
**A.** Dose-dependent effect

**Q.** What about the inhibition (Oryctolagus cuniculus [37]) of the same compound?
**A.** Dose-dependent effect

Source: ChEMBL document CHEMBL2151017, “Inhibition of α-glucosidase and α-amylase by diaryl derivatives of imidazole-thione and 1,2,4-triazole-thiol” (Eur J Med Chem, 2011)
